Results taken from patent US5760036A, “Aminediol protease inhibitors” (E. R. Squibb & Sons, Inc., priority 1995, dated 1998).
pIC50: −log10 of the molar value. Counter-ions that a name gives are not always drawn. Like-named read-outs stand apart in the source and are kept apart here.

How the values were obtained:
HIV protease = target: T1, HIV protease (Human immunodeficiency virus type 1 group M subtype B, UniProt P04585); test: HIV Protease Assay; type: biochemical
T1 construct: and purified protease
Method in brief: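 Purified protease cleaved 450 μM octapeptide substrate in 50 mM sodium acetate pH 5.5 with 100 μg/ml BSA for 30 minutes at 37° C; product analyzed by reverse-phase HPLC at UV220 after H3PO4 quench. Inhibitors tested at final 10 μM with 4% DMSO.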

[1] = test system: RF strain of HIV (CEM-SS cells); test: Cell Culture Anti-HIV Activity (cell viability, formazan); type: cell-based; conditions: Human immunodeficiency virus 1, CEM-SS, 144 h; for pIC50: CEM-SS cells, RF strain of HIV, multiplicity of infection 0.04, 6 days at 37° C., 450 nm, read-out: HIV (CEM Cells) IC50
Method in brief: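 CEM-SS cells (5000/well) infected with HIV RF at MOI 0.04, exposed to half-log serial compound dilutions, incubated 6 days at 37° C. Viability read by tetrazolium reduction to formazan, absorbance 450 nm. IC50 is the concentration raising formazan in infected cells to 50% of uninfected, drug-free cells.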

[2] = pH 5.5, 10 μM inhibitor, 4% DMSO, 450 μM substrate, pH 5.5, 30 minutes at 37° C., RP-HPLC, read-out: HIV Protease % Inhibition at 10 μM
[3] = pH 5.5, read-out: HIV Protease % Inhibition at 10 μM

CC(C)(C)OC(=O)N[C@@H](Cc1ccccc1)C(=O)N[C@@H](Cc1ccccc1)[C@H](O)CNC[C@@H](O)[C@H](Cc1ccccc1)NC(=O)[C@H](Cc1ccccc1)NC(=O)OC(C)(C)C [Compound 38, [S-(1R*,2S*)]-[Iminobis[2-hydroxy-1-(phenylmethyl)-3,1-propanediyl]]-bisimino-bis[N^2-[(1,1-dimethylethoxy)carbonyl]-L-phenyl-alaninamide]]
inhibition at 10 µM (HIV protease; [2]): 3% | pIC50 [1]: < 5.40

O=C(N[C@@H](Cc1ccccc1)[C@H](O)CNC[C@@H](O)[C@H](Cc1ccccc1)NC(=O)c1ccccc1)c1ccccc1 [Compound 36, [S-(1R*,2S*)]-N,N'-[Iminobis[2-hydroxy-1-(phenylmethyl)-3,1-propanediyl]]bisbenzamide]
inhibition at 10 µM (HIV protease; [2]): 36% | pIC50 [1]: < 5.10

CC(C)(C)OC(=O)N[C@@H](Cc1ccccc1)[C@H](O)CNC[C@@H](O)[C@H](Cc1ccccc1)NC(=O)C1NC(=O)OC1(C)C (single isomer, unassigned; isomer b) [Compound 240, [1S-[1R*,2S*(2S*,3R*)]]-[3-[[3-[[(5,5-Dimethyl-2-oxo-4-oxazolidinyl)carbonyl]amino]-2-hydroxy-4-phenylbutyl]amino]-2-hydroxy-1-(phenylmethyl)propyl]carbamic acid, 1,1-dimethylethyl ester, isomer B]
HIV Protease % Inhibition at 10 μM (HIV protease; 10 μM inhibitor, 4% DMSO, 450 μM substrate, pH 5.5, 30 minutes at 37° C., RP-HPLC): 99% | pIC50 [1]: 5.70

CC(C)(C)OC(=O)N[C@@H](Cc1ccccc1)[C@H](O)CNC[C@@H](O)[C@H](Cc1ccc(OCC(=O)N2CCCCC2)cc1)NC(=O)OC(C)(C)C [Compound 332]
inhibition at 10 µM (HIV protease; [3]): 100% | pIC50 [1]: 7.15

CC(C)(O)COc1ccc(C[C@H](NC(=O)OC(C)(C)C)[C@H](O)CNC[C@@H](O)[C@H](Cc2ccccc2)NC(=O)OC(C)(C)C)cc1 [Compound 358, [1S-[1R*,2S*(2S*,3R*)]]-[3-[[3-[[(1,1-Dimethylethoxy)carbonyl]amino]-2-hydroxy-4-[4-(2-hydroxy-2-methylpropoxy)phenyl]butyl]amino]-2-hydroxy-1-(phenylmethyl)propyl]carbamic acid, 1,1-dimethylethyl ester]
inhibition at 10 µM (HIV protease; [3]): 99% | pIC50 [1]: 7.00

CC(C)(C)OC(=O)N[C@@H](Cc1ccccc1)[C@H](O)CNC[C@H](O)[C@H](Cc1ccccc1)NC(=O)OC(C)(C)C [Compound 5, [1S-[1R*,2S*(2R*,3R*)]]-[3-[[3-[[(1,1-Dimethylethoxy)carbonyl]amino]-2-hydroxy-4-phenylbutyl]amino]-2-hydroxy-1-(phenylmethyl)propyl]carbamic acid, 1,1-dimethylethyl ester]
inhibition at 10 µM (HIV protease; [2]): 41% | pIC50 [1]: 5.55

CC(C)C[C@H](N)C(=O)N[C@H](C(=O)N[C@@H](Cc1ccccc1)[C@H](O)CNC[C@@H](O)[C@H](Cc1ccccc1)NC(=O)OC(C)(C)C)C(C)C [Compound 98, [S-[1R*,2S*(2S*,3R*)]-N-[3-[[3-[[(1,1-Dimethylethoxy)carbonyl]amino]-2-hydroxy-4-phenylbutyl]amino]-2-hydroxy-1(phenylmethyl)propyl]-N^2-(L-leucyl)-L-valinamide, fumarate salt]
inhibition at 10 µM (HIV protease; [2]): 100% | pIC50 [1]: 5.89

CC(C)(C)OC(=O)N[C@@H](Cc1ccccc1)[C@H](O)CNC[C@@H](O)[C@H](Cc1ccc(OCCc2ccccn2)cc1)NC(=O)OC(C)(C)C [Compound 178, [1S-[1R*,2S*(2S*,3R*)]]-[3-[[3-[[(1,1-Dimethylethoxy)carbonyl]amino]-2-hydroxy-4-(4-[2-(2-pyridinyl)ethoxy]phenyl]butyl]amino]-2-hydroxy-1-(phenylmethyl)-propyl]carbamic acid, 1,1-dimethyl-ethyl ester]
inhibition at 10 µM (HIV protease; [2]): 99% | pIC50 [1]: 7.52

CC(C)(C)OC(=O)N[C@@H](Cc1ccccc1)[C@H](O)CNC[C@@H](O)[C@H](Cc1cccc(O)c1)NC(=O)OC(C)(C)C [Compound 29, [1S-[1R*,2S*(2S*,3R*)]]-[3-[[3-[[(1,1-Dimethylethoxy)-carbonyl]amino]-2-hydroxy-4-(3-hydroxyphenyl)butyl]-amino]-2-hydroxy-1-(phenylmethyl)propyl]carbamic acid, 1,1-dimethylethyl ester]
inhibition at 10 µM (HIV protease; [3]): 100% | pIC50 [1]: 7.00

COCCOc1ccc(C[C@H](NC(=O)OC(C)(C)C)[C@H](O)CNC[C@@H](O)[C@H](Cc2ccccc2)NC(=O)OC(C)(C)C)cc1 [Compound 224, [1S-[1R*,2S*(2S*,3R*)]]-[3-[[3-[[(1,1-Dimethylethoxy)carbonyl]amino]-2-hydroxy-4-[4-(2-methoxyethoxy)phenyl]butyl]amino]-2-hydroxy-1-(phenylmethyl)propyl]carbamic acid, 1,1-dimethylethyl ester]
inhibition at 10 µM (HIV protease; [2]): 98% | pIC50 [1]: 7.40

O=C(N[C@@H](Cc1ccccc1)[C@H](O)CNC[C@@H](O)[C@H](Cc1ccccc1)NC(=O)O[C@H]1CCOC1)O[C@H]1CCOC1 [Compound 338, [1S-(1R*,2S*), (R*)]-[Iminobis[2-hydroxy-1-(phenylmethyl)-3,1-propanediyl]]bis[carbamic acid], bis(3-tetrahydrofuranyl)ester]
inhibition at 10 µM (HIV protease; [2]): 99% | pIC50 [1]: 6.03

CC(C)(C)OC(=O)N[C@@H](Cc1ccccc1)[C@H](O)CN(C[C@@H](O)[C@H](Cc1ccccc1)NC(=O)OC(C)(C)CO)C(=O)OCC[Si](C)(C)C [Compound 164, [R-(R*,S*)]-[[[(Trimethylsilyl)-ethoxy]carbonyl]iminobis[2-hydroxy-1-(phenylmethyl)-3,1-propanediyl]1biscarbamic acid, 1,1-di-methylethyl 2-hydroxy-1,1-dimethylethyl ester]
inhibition at 10 µM (HIV protease; pH 5.5, read-out: HIV Protease % Inhibition at 10 μM, 10 μM inhibitor, 4% DMSO, 450 μM substrate, pH 5.5, 30 minutes at 37° C., RP-HPLC): 99% | IC50 ([1]; read-out: HIV (CEM Cells) IC50 (μM)): 0.04 µM

CC(C)(C)OC(=O)N[C@@H](Cc1ccccc1)[C@H](O)CNC[C@@H](O)[C@H](Cc1ccccc1)NC(=O)O[C@H]1CCOC1 [Compound 331, [1S-(1R*,2S*,3R*)]-[Iminobis[2-hydroxy-1-(phenylmethyl)-3,1-propanediyl]]bis[carbamic acid], 3-tetrahydrofuranyl 1,1-dimethylethyl ester]
inhibition at 10 µM (HIV protease; [2]): 99% | pIC50 [1]: 7.22

C[C@H](NC(=O)OCc1ccccc1)C(=O)N[C@@H](Cc1ccccc1)[C@H](O)CNC[C@@H](O)[C@H](Cc1ccccc1)NC(=O)OC(C)(C)C (relative stereo) [Compound 243, [1R*,2S*(2S*,3R*)]-N-[3-[[3-[[(1,1-Dimethylethoxy)carbonyl]amino]-2-hydroxy-4-phenylbutyl]-2-hydroxy-1-(phenylmethyl)propyl]-N^2-[(phenylmethoxy)carbonyl]-L-alaninamide]
inhibition at 10 µM (HIV protease; [2]): 99% | pIC50 [1]: 7.10

CC(C)(C)OC(=O)N[C@@H](Cc1ccccc1)[C@H](O)CNC[C@@H](O)[C@H](Cc1ccccc1)NC(=O)[C@@H](NC(=O)OCC1COC(=O)N1)C(C)(C)C (stereo partly drawn) [Compound 315, [S-[1R*,2S*(2S*,3R*)]]-[2,2-Dimethyl-l-[[[3-[[3-[[(1,1-dimethylethoxy)carbonyl]amino]-2-hydroxy-4-phenylbutyl]amino]-2-hydroxy-1-(phenylmethyl)-propyl]amino]carbonyl]propyl]carbamic acid, (2-oxo-4-oxazolidinyl)methyl ester]
inhibition at 10 µM (HIV protease; [2]): 100% | pIC50 [1]: 5.80

CC(C)[C@H](NC(=O)OCc1ccccc1)C(=O)N[C@@H](Cc1ccccc1)[C@H](O)CNC[C@@H](O)[C@H](Cc1ccccc1)NC(=O)[C@H](CC(N)=O)NC(=O)OCc1ccccc1 [Compound 112, [S-[1R*,2S*(2S*,3R*)]]-N-[2-Hydroxy-3-[[2-hydroxy-4-phenyl-3-[[N-[(phenyl-methoxy)carbonyl]-L-valyl]amino]butyl]amino]-1-(phenylmethyl)propyl]-N^2-[(phenylmethoxy)-carbonyl]-L-asparaginamide, monohydrochloride]
inhibition at 10 µM (HIV protease; [2]): 100% | pIC50 [1]: < 5.07

CNC(=O)C(C(=O)N[C@@H](Cc1ccccc1)[C@H](O)CNC[C@@H](O)[C@H](Cc1ccccc1)NC(=O)OC(C)(C)C)C(C)(C)C (stereo partly drawn) [Compound 354, [1S-[1R*,2S*(2S*,3R*)]]-[3-[[3-[[3,3-Dimethyl-2-[(methylamino)carbonyl]-1-oxobutyl]amino]-2-hydroxy-4-phenylbutyl]amino]-2-hydroxy-1-(phenylmethyl)propyl]carbamic acid, 1,1-dimethylethyl ester]
inhibition at 10 µM (HIV protease; [2]): 99% | pIC50 [1]: 6.92

CC(C)(C)OC(=O)N[C@@H](Cc1ccccc1)[C@H](O)CNC[C@@H](O)[C@H](Cc1ccccc1)NC(=O)OC1(C)CCCC1 [Compound 159, [1S-(1R*,2S*)]-[Iminobis[2-hydroxy-1-(phenylmethyl)-3,1-propanediyl]]bis-[carbamic acid], 1,1-dimethylethyl 1-methyl-cyclopentyl ester]
inhibition at 10 µM (HIV protease; [2]): 100% | pIC50 [1]: 5.89

CC(C)[C@H](NC(=O)OCc1nc2ccccc2o1)C(=O)N[C@@H](Cc1ccccc1)[C@H](O)CNC[C@@H](O)[C@H](Cc1ccccc1)NC(=O)OC(C)(C)C (relative stereo) [Compound 171, S-[1R*,2S*(2S*,3R*)]-N^2-[[(2-Benzo-xazolyl)methoxy]carbonyl]-N-[3-[[3-[[(1,1-dimethylethoxy)carbonyl]amino]-2-hydroxy-4-phenylbutyl]amino]-2-hydroxy-1-(phenylmethyl)-propyl]-L-valinamide]
inhibition at 10 µM (HIV protease; [2]): 99% | pIC50 [1]: 7.30
